Experimental data as given in US8895695B2, “Template-fixed beta-hairpin peptidomimetics with CXCR4 antagonizing activity” (priority 2003, dated 2014).
Bridge positions count the residues as written; N and C are the ends. Square brackets hold non-standard residues; d marks the D form. Peptide text beside a SMILES is read from it. 2Nal = N[C@@H](Cc1ccc2ccccc2c1)C(=O)O; Cit = NC(=O)NCCC[C@H](N)C(=O)O; Dab = NCC[C@H](N)C(=O)O

Columns and labels:
CXCR4 = CXCR4 (Homo sapiens, UniProt P61073); assay: Ca2+-assay method 2 (Flexstation, SDF-1 induced calcium mobilization); assay type: cell-based; design: expressed in transfected cells; host or cells: mouse pre-B cell line 300-19; conditions: method 2 (Ex. 54-160), mouse pre-B cell line 300-19 with human CXCR4, 10 nM SDF-1; read-out: IC50 (nM) Ca^2+ assay
CXCR4, sequence (P61073 whole entry): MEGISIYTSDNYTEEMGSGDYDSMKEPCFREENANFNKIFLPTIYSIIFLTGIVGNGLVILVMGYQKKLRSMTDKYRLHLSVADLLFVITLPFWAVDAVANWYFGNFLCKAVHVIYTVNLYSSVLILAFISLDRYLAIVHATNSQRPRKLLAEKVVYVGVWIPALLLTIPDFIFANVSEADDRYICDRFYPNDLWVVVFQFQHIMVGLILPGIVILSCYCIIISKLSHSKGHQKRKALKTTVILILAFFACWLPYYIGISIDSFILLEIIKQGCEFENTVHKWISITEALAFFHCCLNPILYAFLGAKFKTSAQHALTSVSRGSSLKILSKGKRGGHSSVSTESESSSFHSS
Description: 2.2. Ca^2+-Assay: CXCR4-Antagonizing Activity of the Peptides.
The cells were batch loaded with the Calcium 3 Assay kit (Molecular Devices) in assay buffer (Hanks Balanced salt solution, HBSS, 20 mM HEPES, pH 7.4, 0.1% BSA) for 1 h at room temperature and then 200,000 labeled cells were dispensed into black 96 well assays plates (Costar No. 3603). A 20-fold concentrated solution of peptide in assay buffer was added to the cells and the whole plate was centrifuged to settle the cells to the bottom of the wells. Calcium mobilization induced by 10 nM stromal-derived factor-1 (SDF-1) was measured in the Flexstation 384 (excitation, 485 nM; emission, 525 nM) for 90 seconds. A maximal change in fluorescence response above baseline was used to calculate antagonist activity. The data for dose response curves (antagonist concentration versus % maximum response) were fitted to a four parameter logistic equation using SoftmaxPro 4.6 (Molecular Devices), from which IC50% values were calculated.

[1] = tested on: human red blood cells (hRBC); assay: Hemolysis; assay type: cell-based
Description: The peptides were tested for their hemolytic activity against human red blood cells (hRBC). Fresh hRBC were washed three times with phosphate buffered saline (PBS) by centrifugation for 10 min at 2000×g. Peptides at a concentration of 100 μM were incubated with 20% v/v hRBC for 1 hour at 37° C. The final erythrocyte concentration was approximately 0.9×10^9 cells per ml. A value of 0% resp. 100% cell lysis was determined by incubation of the hRBC in the presence of PBS alone and respectively 0.1% Triton X-100 in H2O. The samples were centrifuged and the supernatant was 20-fold diluted in PBS buffer and the optical density (OD) of the sample at […] was measured. The 100% lyses value (OD540H2O) gave an OD540 of approximately 1.3-1.8. Percent hemolysis was calculated as follows: (OD540peptide/OD540H2O)×100%.

in vitro = conditions: human
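For GI50 in this document: MTT reduction read as absorbance at 595 nm, blank-corrected and expressed as percent growth relative to the time-zero cell reading, triplicate wells per concentration.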

Compound	IC50 (CXCR4) [nM]	Hemolysis at 100 μM [1] [%]	GI50 at 48 h (in vitro) [nM]
CC(C)[C@@H]1NC(=O)[C@H](CCCNC(=N)N)NC(=O)[C@H](Cc2ccc(O)cc2)NC(=O)[C@@H]2CCCN2C(=O)[C@H]2CCCN2C(=O)[C@H](CCCCN)NC(=O)[C@H](CCC(N)=O)NC(=O)[C@H](Cc2ccc(O)cc2)NC(=O)[C@@H]2CSSC[C@H](NC1=O)C(=O)N[C@@H](CCCNC(=N)N)C(=O)NCC(=O)N1CCC[C@@H]1C(=O)N[C@@H](CCCNC(=N)N)C(=O)N[C@@H](CCCNC(=N)N)C(=O)N[C@@H](Cc1ccc3ccccc3c1)C(=O)N2 [Ex. 98] (cyclo(YRVCRG[dP]RR[2Nal]CYQK[dP]P); disulfide 4-11)	3.9	1	41000
N=C(N)NCCC[C@@H]1NC(=O)[C@@H]2CSSC[C@H](NC(=O)[C@H](Cc3ccc4ccccc4c3)NC(=O)[C@H](CCCNC(=N)N)NC(=O)[C@H](CCCNC(=N)N)NC(=O)[C@H]3CCCN3C(=O)CNC1=O)C(=O)N[C@@H](Cc1ccc(O)cc1)C(=O)N[C@@H](CCC(N)=O)C(=O)N[C@@H](CCCCN)C(=O)N1CCC[C@@H]1C(=O)N1CCC[C@H]1C(=O)N[C@@H](CO)C(=O)N[C@@H](CCCNC(=N)N)C(=O)N[C@@H](CCCNC(N)=O)C(=O)N2 [Ex. 89] (cyclo(SR[Cit]CRG[dP]RR[2Nal]CYQK[dP]P); disulfide 4-11)	0.5	0	50000
N=C(N)NCCC[C@@H]1NC(=O)[C@@H]2CSSC[C@H](NC(=O)[C@H](Cc3ccc4ccccc4c3)NC(=O)[C@H](CCCNC(=N)N)NC(=O)[C@H](CCCNC(=N)N)NC(=O)[C@H]3CCCN3C(=O)CNC1=O)C(=O)N[C@@H](Cc1ccc(O)cc1)C(=O)N[C@@H](CO)C(=O)N[C@@H](CCCCN)C(=O)N1CCC[C@@H]1C(=O)N1CCC[C@H]1C(=O)N[C@@H](Cc1ccc(O)cc1)C(=O)N[C@@H](CCCNC(=N)N)C(=O)N[C@@H](CCCNC(N)=O)C(=O)N2 [Ex. 81] (cyclo(YR[Cit]CRG[dP]RR[2Nal]CYSK[dP]P); disulfide 4-11)	4.9	0	45000
C[C@@H](O)[C@@H]1NC(=O)[C@@H]2CCCN2C(=O)[C@H]2CCCN2C(=O)[C@H](CCCCN)NC(=O)[C@H](CCC(N)=O)NC(=O)[C@H](Cc2ccc(O)cc2)NC(=O)[C@@H]2CSSC[C@H](NC(=O)[C@H](CCCNC(N)=O)NC(=O)[C@H](CCCNC(=N)N)NC1=O)C(=O)N[C@@H](CCCNC(=N)N)C(=O)NCC(=O)N1CCC[C@@H]1C(=O)N[C@@H](CCCNC(=N)N)C(=O)N[C@@H](CCCNC(=N)N)C(=O)N[C@@H](Cc1ccc3ccccc3c1)C(=O)N2 [Ex. 67] (cyclo(TR[Cit]CRG[dP]RR[2Nal]CYQK[dP]P); disulfide 4-11)	2.4	0.2	49000
N=C(N)NCCC[C@@H]1NC(=O)[C@@H]2CSSC[C@H](NC(=O)[C@H](Cc3ccc4ccccc4c3)NC(=O)[C@H](CCCNC(=N)N)NC(=O)[C@H](CCCNC(=N)N)NC(=O)[C@H]3CCCN3C(=O)CNC1=O)C(=O)N[C@@H](Cc1ccc(O)cc1)C(=O)N[C@@H](CCC(N)=O)C(=O)N[C@@H](CCCCN)C(=O)N1CCC[C@@H]1C(=O)N1CCC[C@H]1C(=O)N[C@@H](Cc1ccc(O)cc1)C(=O)N[C@@H](CCCNC(=N)N)C(=O)N[C@@H](CC(=O)O)C(=O)N2 [Ex. 93] (cyclo(YRDCRG[dP]RR[2Nal]CYQK[dP]P); disulfide 4-11)	4.3	0.2	> 100000
CSCC[C@@H]1NC(=O)[C@@H]2CCCN2C(=O)[C@H]2CCCN2C(=O)[C@H](CCCCN)NC(=O)[C@H](CCC(N)=O)NC(=O)[C@H](Cc2ccc(O)cc2)NC(=O)[C@@H]2CSSC[C@H](NC(=O)[C@H](CCCNC(N)=O)NC(=O)[C@H](CCCNC(=N)N)NC1=O)C(=O)N[C@@H](CCCNC(=N)N)C(=O)NCC(=O)N1CCC[C@@H]1C(=O)N[C@@H](CCCNC(=N)N)C(=O)N[C@@H](CCCNC(=N)N)C(=O)N[C@@H](Cc1ccc3ccccc3c1)C(=O)N2 [Ex. 91] (cyclo(MR[Cit]CRG[dP]RR[2Nal]CYQK[dP]P); disulfide 4-11)	2.1	0.2	48000
N=C(N)NCCC[C@@H]1NC(=O)[C@@H]2CSSC[C@H](NC(=O)[C@H](Cc3ccc4ccccc4c3)NC(=O)[C@H](CCCNC(=N)N)NC(=O)[C@H](CCCNC(=N)N)NC(=O)[C@H]3CCCN3C(=O)CNC1=O)C(=O)N[C@@H](Cc1ccc(O)cc1)C(=O)N[C@@H](Cc1c[nH]cn1)C(=O)N[C@@H](CCCCN)C(=O)N1CCC[C@@H]1C(=O)N1CCC[C@H]1C(=O)N[C@@H](Cc1ccc(O)cc1)C(=O)N[C@@H](CCCNC(=N)N)C(=O)N[C@@H](CCCNC(N)=O)C(=O)N2 [Ex. 58] (cyclo(YR[Cit]CRG[dP]RR[2Nal]CYHK[dP]P); disulfide 4-11)	10.5	0	18000
N=C(N)NCCC[C@@H]1NC(=O)[C@@H]2CSSC[C@H](NC(=O)[C@H](Cc3c[nH]c4ccccc34)NC(=O)[C@H](CCCNC(=N)N)NC(=O)[C@H](CCCNC(=N)N)NC(=O)[C@H]3CCCN3C(=O)CNC1=O)C(=O)N[C@@H](Cc1ccc(O)cc1)C(=O)N[C@@H](CCCNC(N)=O)C(=O)N[C@@H](CCCCN)C(=O)N1CCC[C@@H]1C(=O)N1CCC[C@H]1C(=O)N[C@@H](Cc1ccccc1)C(=O)N[C@@H](CCCNC(=N)N)C(=O)N[C@@H](CCCNC(N)=O)C(=O)N2 [Ex. 107] (cyclo(FR[Cit]CRG[dP]RRWCY[Cit]K[dP]P); disulfide 4-11)	3.8	0.4	50000
N=C(N)NCCC[C@@H]1NC(=O)[C@@H]2CSSC[C@H](NC(=O)[C@H](Cc3ccc4ccccc4c3)NC(=O)[C@H](CCCNC(=N)N)NC(=O)[C@H](CCN)NC(=O)[C@H]3CCCN3C(=O)CNC1=O)C(=O)N[C@@H](Cc1ccc(O)cc1)C(=O)N[C@@H](CCCNC(N)=O)C(=O)N[C@@H](CCCCN)C(=O)N1CCC[C@@H]1C(=O)N1CCC[C@H]1C(=O)N[C@@H](Cc1ccc(O)cc1)C(=O)N[C@@H](CCCNC(=N)N)C(=O)N[C@@H](CCCNC(N)=O)C(=O)N2 [Ex. 134] (cyclo(YR[Cit]CRG[dP][Dab]R[2Nal]CY[Cit]K[dP]P); disulfide 4-11)	1.7	0	21000
N=C(N)NCCC[C@@H]1NC(=O)[C@@H]2CSSC[C@H](NC(=O)[C@H](Cc3ccc4ccccc4c3)NC(=O)[C@H](CCCNC(=N)N)NC(=O)[C@H](CCCNC(=N)N)NC(=O)[C@H]3CCCN3C(=O)CNC1=O)C(=O)N[C@@H](Cc1ccc(O)cc1)C(=O)N[C@@H](CCC(N)=O)C(=O)N[C@@H](CCCCN)C(=O)N1CCC[C@@H]1C(=O)N1CCC[C@H]1C(=O)N[C@@H](Cc1ccc(O)cc1)C(=O)N[C@@H](CCCNC(=N)N)C(=O)N[C@@H](CCCCN)C(=O)N2 [Ex. 94] (cyclo(YRKCRG[dP]RR[2Nal]CYQK[dP]P); disulfide 4-11)	2.5	0.2	45000
N=C(N)NCCC[C@@H]1NC(=O)[C@@H]2CSSC[C@H](NC(=O)[C@H](Cc3c[nH]c4ccccc34)NC(=O)[C@H](CCCNC(=N)N)NC(=O)[C@H](Cc3c[nH]cn3)NC(=O)[C@H]3CCCN3C(=O)CNC1=O)C(=O)N[C@@H](Cc1ccc(O)cc1)C(=O)N[C@@H](CCCNC(N)=O)C(=O)N[C@@H](CCCCN)C(=O)N1CCC[C@@H]1C(=O)N1CCC[C@H]1C(=O)N[C@@H](Cc1ccc(O)cc1)C(=O)N[C@@H](CCCNC(=N)N)C(=O)N[C@@H](CCCNC(N)=O)C(=O)N2 [Ex. 137] (cyclo(YR[Cit]CRG[dP]HRWCY[Cit]K[dP]P); disulfide 4-11)	1.28	0.5	79000
N=C(N)NCCC[C@@H]1NC(=O)[C@@H]2CSSC[C@H](NC(=O)[C@H](Cc3ccc4ccccc4c3)NC(=O)[C@H](CCCNC(=N)N)NC(=O)[C@H](CCCNC(=N)N)NC(=O)[C@H]3CCCN3C(=O)CNC1=O)C(=O)N[C@@H](Cc1ccc(O)cc1)C(=O)N[C@@H](CCC(N)=O)C(=O)N[C@@H](CCCCN)C(=O)N1CCC[C@@H]1C(=O)N1CCC[C@H]1C(=O)N[C@@H](Cc1ccc(O)cc1)C(=O)N[C@@H](CCCNC(=N)N)C(=O)N[C@@H](Cc1ccc(O)cc1)C(=O)N2 [Ex. 72] (cyclo(YRYCRG[dP]RR[2Nal]CYQK[dP]P); disulfide 4-11)	3.9	0.5	36000
C[C@@H]1NC(=O)[C@H](CCCNC(=N)N)NC(=O)[C@H](Cc2ccc(O)cc2)NC(=O)[C@@H]2CCCN2C(=O)[C@H]2CCCN2C(=O)[C@H](CCCCN)NC(=O)[C@H](CCC(N)=O)NC(=O)[C@H](Cc2ccc(O)cc2)NC(=O)[C@@H]2CSSC[C@H](NC1=O)C(=O)N[C@@H](CCCNC(=N)N)C(=O)NCC(=O)N1CCC[C@@H]1C(=O)N[C@@H](CCCNC(=N)N)C(=O)N[C@@H](CCCNC(=N)N)C(=O)N[C@@H](Cc1ccc3ccccc3c1)C(=O)N2 [Ex. 95] (cyclo(YRACRG[dP]RR[2Nal]CYQK[dP]P); disulfide 4-11)	2.9	0.1	41000
